This test addresses T1, human mGluR3 (hmGluR3) (Homo sapiens, UniProt Q14832).
T1 construct: expressed in transfected cells; host or cells: HEK-293 cells, transient co-transfection by electroporation
Put plainly: Human mGluR3 positive allosteric modulator evaluation using Ca++ functional assay. Format: cell-based. The settings on record: hmGluR3 transiently over-expressed in HEK-293 cells; stimulated by EC50 glutamate concentration; intracellular Ca2+ (Fluo4AM, FLIPR Tetra). The protocol:
Compounds of the present invention were tested successively for their agonist and positive allosteric modulator activities on human mGluR3 (hmGluR3) transiently over-expressed in HEK-293 cells. Compounds exert agonist activity if they are able to activate hmGluR3 by themselves, i.e., in absence of the endogenous agonist glutamate; and they exert positive allosteric modulator activity if they increase the action of the endogenous agonist glutamate.
HEK-293 cells were maintained in Modified Eagle's Medium supplemented with 10% Foetal Calf Serum, 1% Penicillin/Streptomycin and 1% non-essential amino acids at 37° C./5% CO2.
Cells were co-transfected by electroporation with four DNA plasmids encoding hmGluR3, a chimeric G protein allowing redirection of the activation signal toward intracellular calcium pathway, and two glutamate transporters so as to decrease extracellular glutamate levels and avoid receptor desensitization (Brabet I et al., Neuropharmacology 37(8), 1043-51, 1998). After transfection, cells were seeded in 75 cm^2 culture flasks, and cultured for 24 h.
Receptor activity was detected by changes in intracellular calcium measured using the fluorescent Ca^2+ sensitive dye, Fluo4AM (Molecular Probes).
The day of the assay, medium was aspirated and replaced during 3 hrs by freshly prepared buffer B (HBSS 1×, Hepes 20 mM, MgSO4-7H2O 1 mM, Na2CO3 3.3 mM, CaCl2-2H2O 1.3 mM, 0.5% BSA, Probenecid 2.5 mM). Then, cells were loaded at 37° C./5% CO2 for 1.5 hrs with buffer B containing 1 μM Fluo4AM, 0.1 mg/mL Pluronic Acid, 7 μg/mL Glutamate Pyruvate Transaminase and 2 mM sodium pyruvate. Afterwards cells were washed with buffer B. Cells were then detached from the 75 cm^2 culture flasks with Accutase® (5 min incubation at 37° C.), centrifuged (5 min at 840 rpm), resuspended in buffer B and finally seeded at a density of 30,000 cells/well in black-walled clear-bottom 384-well plates. Addition of compounds on cells and intracellular Ca^2+ measurements (excitation 485 nm, emission 525 nm) were performed by the fluorescence microplate reader FLIPR Tetra (Molecular Devices).
Agonist and positive allosteric modulator activities of compounds were consecutively evaluated on the same cells plate. Agonist activity was first tested during 10 min with the addition of compound alone on the cells. Then, the cells were stimulated by an EC50 glutamate concentration and fluorescence was recorded for additional 3 min. EC50 glutamate concentration is the concentration giving 50% of the maximal glutamate response. Agonist and/or positive allosteric modulator activity(ies) were evaluated in comparison to basal signal or signal evoked by EC50 glutamate concentration alone, respectively.
For potency determination, a dose-response test was performed using 20 concentrations of each compound of the invention. Dose-response curves were fitted using the sigmoïdal dose-response (variable slope) analysis in XLfit Scientific Curve Fitting for Excel (IDBS). EC50 of agonist/EC50 of positive allosteric modulator activity(ies) were calculated. Dose-response experiments were all performed in duplicate, two times independently.

This note sets out measurements from US11008323B2, “Substituted tricyclic 1,4-benzodiazepinone derivatives as allosteric modulators of group II metabotropic glutamate receptors” (Domain Therapeutics, priority 2015, dated 2021).

T1 sequence (Q14832 23-879): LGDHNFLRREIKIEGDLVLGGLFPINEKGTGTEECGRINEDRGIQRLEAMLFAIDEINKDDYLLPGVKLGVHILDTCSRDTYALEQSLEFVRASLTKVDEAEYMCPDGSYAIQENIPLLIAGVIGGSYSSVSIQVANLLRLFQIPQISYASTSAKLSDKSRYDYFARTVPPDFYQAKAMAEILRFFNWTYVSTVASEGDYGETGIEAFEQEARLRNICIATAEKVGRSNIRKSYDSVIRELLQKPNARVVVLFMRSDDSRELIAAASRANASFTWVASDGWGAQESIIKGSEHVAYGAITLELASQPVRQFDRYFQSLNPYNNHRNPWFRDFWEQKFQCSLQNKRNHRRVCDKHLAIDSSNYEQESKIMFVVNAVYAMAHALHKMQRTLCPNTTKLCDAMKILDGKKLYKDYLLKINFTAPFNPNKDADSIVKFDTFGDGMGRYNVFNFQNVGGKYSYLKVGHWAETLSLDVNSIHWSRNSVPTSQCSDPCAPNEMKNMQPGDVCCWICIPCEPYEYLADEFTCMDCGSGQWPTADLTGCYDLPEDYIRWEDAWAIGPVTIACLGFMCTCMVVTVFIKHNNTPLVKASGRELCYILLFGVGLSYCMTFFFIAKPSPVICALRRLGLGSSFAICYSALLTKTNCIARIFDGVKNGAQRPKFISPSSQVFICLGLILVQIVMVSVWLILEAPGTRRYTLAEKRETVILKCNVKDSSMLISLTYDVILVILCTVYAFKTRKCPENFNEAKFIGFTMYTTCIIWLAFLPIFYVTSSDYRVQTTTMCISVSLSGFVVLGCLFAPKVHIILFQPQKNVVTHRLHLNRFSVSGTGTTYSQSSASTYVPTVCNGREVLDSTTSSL

With `CN1C(=O)c2cc(-c3ccccc3)cn2-c2ccc(Br)cc2C12CC2` [Example 16, 8-Bromo-5-methyl-2-phenyl-spiro[benzo[f]pyrrolo[1,2-a][1,4]diazepine-6,1′-cyclopropan]-4(5H)-one], the EC50 (commonly the concentration that produces a half-maximal response) is > 1000 nM.
Take `Cc1ncccc1-c1cc(F)c2c(c1)-n1cccc1C(=O)N(C)C21CC1` [Example 73, 7-Fluoro-5-methyl-9-(2-methyl-pyridin-3-yl)-spiro[benzo[f]pyrrolo[1,2-a][1,4]diazepine-6,1′-cyclopropan]-4(5H)-one]: the EC50 was < 100 nM.
The result for `CC1c2ccc(-c3ccc(N(C)C)nc3)cc2-n2cccc2C(=O)N1C` (stereo not drawn) [Example 219, 9-(6-Dimethylamino-pyridin-3-yl)-5,6-dimethyl-5,6-dihydro-benzo[f]pyrrolo[1,2-a][1,4]diazepin-4-one] reads < 100 nM.
Take `Cc1cc(-c2ccc3c(c2)-n2cc(-c4ccccc4)cc2C(=O)N(C)C32CC2)cc(C)n1` [Example 97, 5-Methyl-2-phenyl-9-(2,6-dimethyl-pyridin-4-yl)-spiro[benzo[f]pyrrolo[1,2-a][1,4]diazepine-6,1′-cyclopropan]-4(5H)-one]: the concentration for a half-maximal effect (EC50) fell in the range of 100 to 1000 nM.
For `Cc1nccnc1-c1ccc2c(c1)-n1cccc1C(=O)N(C)C21CC1` [Example 58, 5-Methyl-9-(3-methyl-pyrazin-2-yl)-5,6-spiro[benzo[f]pyrrolo[1,2-a][1,4]diazepine-6,1′-cyclopropan]-4(5H)-one] the value was > 1000 nM.
The result for `Cc1ccnc(C)c1-c1ccc2c(c1)-n1cccc1C(=O)N(C)C21CC1` [Example 65, 5-Methyl-9-(2,4-dimethylpyridin-3-yl)-spiro[benzo[f]pyrrolo[1,2-a][1,4]diazepine-6,1′-cyclopropan]-4(5H)-one] reads > 1000 nM; that for `Cc1ncccc1-c1ccc2c(c1)-n1c(cc(Cl)c1F)C(=O)N(C)C21CC1` [Example 83, 9-(2-Methyl-pyridin-3-yl)-2-chloro-1-fluoro-5-methyl-spiro[benzo[f]pyrrolo[1,2-a][1,4]diazepine-6,1′-cyclopropan]-4(5H)-one], < 100 nM; that for `CN1C(=O)c2cc(-c3ccccc3)cn2-c2cc(-c3cccnn3)ccc2C12CC2` [Example 109, 5-Methyl-2-phenyl-9-pyridazin-3-yl-spiro[benzo[f]pyrrolo[1,2-a][1,4]diazepine-6,1′-cyclopropan]-4(5H)-one], 100 to 1000 nM.
As to `CN1C(=O)c2cccn2-c2cc(Br)c(F)cc2C12CC2` [Example 9, 9-Bromo-8-fluoro-5-methyl-spiro[benzo[f]pyrrolo[1,2-a][1,4]diazepine-6,1′-cyclopropan]-4(5H)-one], the EC50 is > 1000 nM.
The result for `CN1C(=O)c2cccn2-c2cc(-c3cc(F)ccn3)ccc2C12CC2` [Example 57, 5-Methyl-9-(4-fluoropyridin-2-yl)-spiro[benzo[f]pyrrolo[1,2-a][1,4]diazepine-6,1′-cyclopropan]-4(5H)-one] reads 100 to 1000 nM.
In turn, `CC(=O)c1cc2n(c1)-c1cc(-c3cccnc3C)ccc1C1(CC1)N(C)C2=O` [Example 195] came in with an EC50 of 100 to 1000 nM.
As for `Cc1ncccc1-c1ccc2c(c1)-n1ccc(Cl)c1C(=O)N(C)C21CC1` [Example 84, 9-(2-Methyl-pyridin-3-yl)-3-chloro-5-methyl-spiro[benzo[f]pyrrolo[1,2-a][1,4]diazepine-6,1′-cyclopropan]-4(5H)-one], the EC50 lay within 100 to 1000 nM.
For the molecule `CCc1cc2n(c1)-c1cc(-c3cccnc3C)ccc1C1(CC1)N(C)C2=O` [Example 197], the EC50 is < 100 nM.
Turning to `CCCc1ncccc1-c1ccc2c(c1)-n1cccc1C(=O)N(C)C21CC1` [Example 61, 5-Methyl-9-(2-propylpyridin-3-yl)-spiro[benzo[f]pyrrolo[1,2-a][1,4]diazepine-6,1′-cyclopropan]-4(5H)-one], the EC50 is < 100 nM.
On to `Cc1ccncc1-c1ccc2c(c1)-n1cc(-c3ccccc3)cc1C(=O)N(C)C21CC1` [Example 101, 5-Methyl-2-phenyl-9-(4-methyl-pyridin-3-yl)-spiro[benzo[f]pyrrolo[1,2-a][1,4]diazepine-6,1′-cyclopropan]-4(5H)-one], for which the half-maximal effective concentration (EC50) is 100 to 1000 nM.
`Cc1ccc(-c2ccc3c(c2)-n2cc(Br)cc2C(=O)N(C)C32CC2)cn1` [Example 18, 2-Bromo-5-methyl-9-(6-methyl-pyridin-3-yl)-spiro[benzo[f]pyrrolo[1,2-a][1,4]diazepine-6,1′-cyclopropan]-4(5H)-one]: the EC50 is < 100 nM.
For the molecule `Cc1ccc(-c2ccc3c(c2)-n2cc(-c4nccs4)cc2C(=O)N(C)C32CC2)cn1` [Example 158], the EC50 is < 100 nM.
The result for `CN1C(=O)c2cccn2-c2cc(C3=CCNCC3)ccc2C12CC2` [Example 46, 5-Methyl-9-(1,2,3,6-tetrahydro-pyridin-4-yl)-spiro[benzo[f]pyrrolo[1,2-a][1,4]diazepine-6,1′-cyclopropan]-4(5H)-one] reads > 1000 nM; that for `CCc1ncccc1-c1ccc2c(c1)-n1cccc1C(=O)N(C)C21CC1` [Example 24, 5-Methyl-9-(2-ethylpyridin-3-yl)-spiro[benzo[f]pyrrolo[1,2-a][1,4]diazepine-6,1′-cyclopropan]-4(5H)-one], 100 to 1000 nM; that for `Cc1cc(-c2ccc3c(c2)-n2cc(-c4ccccc4)cc2C(=O)N(C)C32CC2)ccn1` [Example 105, 5-Methyl-2-phenyl-9-(2-methyl-pyridin-4-yl)-spiro[benzo[f]pyrrolo[1,2-a][1,4]diazepine-6,1′-cyclopropan]-4(5H)-one], 100 to 1000 nM.
As to `Cc1ncccc1-c1ccc2c(c1)-n1cc(-c3ccccc3F)cc1C(=O)N(C)C21CC1` [Example 151], the EC50 is < 100 nM.
As to `Cc1ncccc1-c1ccc2c(c1)-n1cc(-c3cc[nH]n3)cc1C(=O)N(C)C21CC1` [Example 146], the EC50 was < 100 nM.
For `Cc1ncccc1-c1ccc2c(c1)-n1cc(-c3ccccc3Cl)cc1C(=O)N(C)C21CC1` [Example 147] the value was 100 to 1000 nM; for `Cc1ncccc1-c1ccc2c(c1)-n1cc(C(=O)C3CCCC3)cc1C(=O)N(C)C21CC1` [Example 194], 100 to 1000 nM.
The result for `CN1C(=O)c2cccn2-c2cc(Br)cc(F)c2C12CC2` [Example 7, 9-Bromo-7-fluoro-5-methyl-spiro[benzo[f]pyrrolo[1,2-a][1,4]diazepine-6,1′-cyclopropan]-4(5H)-one] reads > 1000 nM; that for `Cc1ncccc1-c1ccc2c(c1)-n1cc(C3CCCC3)cc1C(=O)N(C)C21CC1` [Example 156], 100 to 1000 nM; that for `CN1C(=O)c2cc(-c3ccccc3)nn2-c2cc(-c3ccc(Cl)cc3)ccc2C12CC2` [Example 135, 9-(4-Chloro-phenyl)-5-methyl-2-phenyl-spiro[benzo[f]pyrazolo[1,5-a][1,4]diazepine-6,1′-cyclopropan]-4(5H)-one], > 1000 nM.
As for `Cc1ncccc1-c1ccc2c(c1)-n1cc(-c3ccccc3)nc1C(=O)N(C)C21CC1` [Example 140, 9-(2-Methyl-pyridin-3-yl)-5-methyl-2-phenyl-spiro[benzo[f]imidazo[1,2-a][1,4]diazepine-6,1′-cyclopropan]-4(5H)-one], the EC50 was < 100 nM.
The result for `Cc1ncccc1-c1ccc2c(c1)-n1cc(-c3cccc(F)c3)cc1C(=O)N(C)C21CC1` [Example 152] reads < 100 nM; that for `Cc1ncccc1-c1ccc2c(c1)-n1cc(C3CC3)cc1C(=O)N(C)C21CC1` [Example 155], < 100 nM.
